Here are results for 6 molecules from patent publication US6479056B1, “Live vaccine constituting minor risk for humans” (priority 1994, dated 2002).

The assay has as its system wild strains. The experiment in a line: MHK of antibiotics for wild strains. It counts as cell-based, Salmonella.

With `CCn1cc(C(=O)O)c(=O)c2ccc(C)nc21` [nalidixic acid], the MHK entry was “(CHINOIN, Budapest) wild strains MHK 6.2 ug/ml”.

For the molecule `O=C(O)c1cn(C2CC2)c2cc(N3CCNCC3)c(F)cc2c1=O` [ciprofloxacin], the MHK entry was “(Bayer) wild strains MHK 0.05 ug/ml”. The result for `CC[C@H]1OC(=O)[C@H](C)[C@@H](O[C@H]2C[C@@](C)(OC)[C@@H](O)[C@H](C)O2)[C@H](C)[C@@H](O[C@@H]2O[C@H](C)C[C@H](N(C)C)[C@H]2O)[C@](C)(O)C[C@@H](C)C(=O)[C@H](C)[C@@H](O)[C@]1(C)O` [erythromycin] reads “(Abbott) wild strains MHK 60.0 ug/ml”; that for `O=C(N[C@H](CO)[C@H](O)c1ccc([N+](=O)[O-])cc1)C(Cl)Cl` [chloramphenicol], “(Berlin-Chemie) 2.0 ug/ml”. The result for `C[C@H]1c2cccc(O)c2C(=O)C2=C(O)[C@]3(O)C(=O)C(C(N)=O)=C(O)[C@@H](N(C)C)[C@@H]3[C@@H](O)[C@@H]21` [doxycycline] reads “(Jenapharm) wild strains MHK 4.0 ug/ml”; that for `[H]/N=C(/N)N[C@H]1[C@H](O)[C@@H](O)[C@H](O[C@@H]2O[C@@H](C)[C@](O)(C=O)[C@H]2O[C@@H]2O[C@@H](CO)[C@H](O)[C@@H](O)[C@@H]2NC)[C@@H](N/C(N)=N\[H])[C@@H]1O` [streptomycin], “(Jenapharm) wild strains MHK 6.2 ug/ml”.
